Laboratory results published in patent US6878736B1, “Histamine H3 receptor ligands” (James Black Foundation Limited, priority 1998, dated 2005).
Counter-ions that a name gives are not always drawn.

Key:
Histamine H3 receptor [1] = target: T1, Histamine H3 receptor (Cavia porcellus, UniProt Q9JI35); test: Histamine H3 radioligand binding assay, guinea pig cortex ([3H]-R-α-methylhistamine); settings: guinea pig cortex membranes, competition with 1 nM [3H]-R-α-methylhistamine; for Ki: read-out: pKi (Guinea pig cortex) (converted)
Description: The compounds of the invention were also tested in a guinea pig cortex binding assay, as follows:
Histamine H3 Radioligand Binding Assay—Guinea Pig Cortex
Male Dunkin Hartley guinea pigs (200-300 g) were used. The whole brain was removed and immediately placed in ice-cold 20 mM Hepes-NaOH buffer (pH7.4 at 21±3° C.). The cortex was dissected, weighed and homogenised in ice-cold 20 mM Hepes-NaOH buffer (pH7.4 at 21±3° C.) (50 ml/guinea-pig cortex) using a polytron (Kinematica AG; PT-DA 3020/2TS, 3×3 s). The homogenate was centrifuged at 100×g for 5 min and the supernatants pooled and stored at 4° C. The pellets were rehomogenised in fresh ice-cold buffer (80 ml) and recentrifuged (100×g for 5 min). The supernatants were pooled and pellets rehomogenised and recentrifuged (100×g for 5 min). All supernatants were pooled and centrifuged at 39,800×g for 12 min at 4° C. The final pellet was resuspended in 20 mM Hepes-NaOH buffer (pH7.4 at 21±3° C.) to a tissue concentration of 7.5 mg.ml^−1, using a teflon-in-glass homogeniser.
Guinea pig cortex membranes (400 μl) were incubated for 165 min at 21±3° C. in a final volume of 500 μl with 20 mM Hepes-NaOH buffer containing [^3H]-R-α-methylhistamine (50 μl; 1 nM) and competing compound. Total and non-specific binding of [^3H]-R-α-methylhistamine were defined using 50 μl of buffer and 50 μl of 10 μM thioperamide, respectively. The assay was terminated by rapid filtration through Whatman GF/B filters, presoaked (2 hr) in 0.1% polyethyleneimine, using a Brandell Cell Harvester. The filters were washed (3×3 ml) with ice-cold 50 mM Tris-HCl (pH6.9 at 21±3° C.), transferred into scintillation vials, 5 ml liquid scintillation cocktail was added and after 4 hours the bound radioactivity was determined by counting (4 min) in a Beckman liquid scintillation counter.
Data are analysed using GraphPad prism and the general equation for a competition curve with variable Hill slope (nH). [formula] where • X is the log concentration of competing compound, • Y is the binding obtained at each concentration of X, • pIC50 is the concentration of the competitor required to compete for half of the specific binding.
The IC50 is converted to the K1 using the Cheng Prusoff equation, K1=IC50/(1+(L/KD)) where • IC50 is the concentration of competitor required to compete for half the specific binding, • L is the radioligand concentration used, • KD is the equilibrium dissociation constant for the radioligand determined by saturation experiments.

Histamine H3 receptor [2] = target: T1, Histamine H3 receptor; test: Histamine H3 functional assay, guinea pig ileum (ileal longitudinal muscle, myenteric plexus); set-up: species or system tissue; settings: antagonist affinity from rightward shift of R-(α)-methylhistamine E/[A] curves (Schild), typical variance ±0.15 log units; for Kb: read-out: pKb (Guinea pig ileum) (converted)
Description: • 1. J. Med. Chem 1994, 314. • 2. WO 97/29092 Histamine H3 Functional Assay—Guinea Pig Ileum
The biological activity of the compounds of the examples was measured using the ileal longitudinal muscle, myenteric plexus assay described by Paton and Aboo Zar (J. Physiol. 1968, 194, 13-33). Male Dunkin-Hartley guinea pigs (250-300 g) were employed. Briefly, a 50 cm portion of ileum proximal to the caecum was removed, after discarding the terminal 20 cm. Ileal segments (3 cm) were cleaned by passing Krebs-Henseleit buffer containing 3 μM mepyramine gently through the ileum using a Pasteur pipette (size: 13.8 cm length, 0.65 cm diameter). To avoid unnecessary damage to the tissue, Krebs-Henseleit buffer was passed through the ileal segment, while it was lying horizontally on a petri dish. Therefore, the ileum was not over-distended and the buffer flowed through with ease. Each segment was then passed over a Pasteur pipette and the longitudinal muscle layer and adhering myenteric plexus was teased away using moist cotton wool, by stroking tangentially away from the mesenteric attachment. The tissues were suspended in 20 ml organ baths containing Krebs-Henseleit buffer at 37±1° C. and gassed with […]. The tissues were ligated to two parallel stainless steel wires, situated between two platinum electrodes (0.76 cm length, 0.06 cm diameter). All measurements were recorded isometrically (Grass FTO3 transducer). Following an initial loading tension of 1 g, the tissues were stimulated with electrical pulses at a frequency of 0.1 Hz and a pulse duration of 0.5 msec, as described by Kosterlitz & Watt (Br. J. Pharmacol. 1968, 266276). Initially, the tissues were stimulated at supramaximal (1.3 fold times maximal) voltage for a period of 30 min and then the tissues were washed and re-stimulated. A “sighter dose” of the selective histamine H3-receptor agonist, R-(α)-methylhistamine (0.3 μM) (Arrang et al. Nature, 1987, 117-123), was administered. Upon generation of response, the “sighter dose” was removed from the tissues by “washout” (6 washes over 60 min) and during this period the electrical stimulation was switched off. The tissues were then re-stimulated and allowed to stabilise prior to the addition of drug treatments, which were allocated on a randomised block basis to the organ baths. Following the incubation period, a single cumulative E/[A] curve was obtained. The experimental E/[A] curve data was expressed as the percentage inhibition of the peak height of electrically-stimulated contraction. Antagonist affinity values were calculated from the degree of rightward shift of the R-(α)-methylhistamine E/[A] curves using Schild's methods (Arunlakshana & Schild Br. J. Pharmacol. 1959, 48-58). Typical variance in this assay is ±0.15 log units.

T1 sequence (Q9JI35 whole entry): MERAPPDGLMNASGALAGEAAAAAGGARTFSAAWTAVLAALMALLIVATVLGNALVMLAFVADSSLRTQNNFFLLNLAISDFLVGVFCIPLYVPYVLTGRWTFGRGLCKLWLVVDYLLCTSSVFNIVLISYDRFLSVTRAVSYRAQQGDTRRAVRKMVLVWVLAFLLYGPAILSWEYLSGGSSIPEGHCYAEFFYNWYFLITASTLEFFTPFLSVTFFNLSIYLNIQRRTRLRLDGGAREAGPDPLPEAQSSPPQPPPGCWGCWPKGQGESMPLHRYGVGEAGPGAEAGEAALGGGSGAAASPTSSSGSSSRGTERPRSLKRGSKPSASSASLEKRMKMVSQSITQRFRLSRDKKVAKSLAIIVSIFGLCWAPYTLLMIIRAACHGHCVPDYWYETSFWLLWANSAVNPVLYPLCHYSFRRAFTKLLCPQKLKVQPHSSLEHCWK

Structure (SMILES)	pKi (Guinea pig cortex) (Histamine H3 receptor [1])	pKb (Guinea pig ileum) (Histamine H3 receptor [2])	Ki (Histamine H3 receptor [1]) [nM]	Kb (Histamine H3 receptor [2]) [nM]	pKi (Guinea pig cortex) (Histamine H3 receptor [1]; bis-hydrochloride)
Cl.Cl.N=C(NCCCN1CCCC1)NCc1ccc(-c2ccccc2)cc1 [Example 12, N-Biphenyl-4-yl-methyl-N′-(3-pyrrolidin-1-yl-propyl)-guanidine bis-hydrochloride]	6.2	6.3			
N=C(N)N(CCCCCCN1CCCC1)CCC12CC3CC(CC(C3)C1)C2 [Example 78, N-(2-Adamantan-1-yl-ethyl)-N-(6-pyrrolidin-1-yl-hexyl)-guanidine bis-hydrochloride]			79.4	31.6	
CN1CCC[C@H]1CCCNS(=O)(=O)Cc1ccc(Cl)cc1 [Example 99]			200	316	
Cl.Cl.N=C(NCCCCCCN1CCCC1)NCC12CC3CC(CC(C3)C1)C2 [Example 31, N-Adamantan-1-yl-methyl-N′-(6-pyrrolidin-1-yl-hexyl)-guanidine bis-hydrochloride]		8.0			8.4
N=C(NCCCc1ccc(Cl)cc1)NCCCN1CCCC1 [Example 21, N-(3-(4-Chlorophenyl)propyl)-N′-(3-pyrrolidin-1-yl-propyl)-guanidine bis-hydrochloride]			50.1	158	
N=C(NCCCCCN1CCCC1)NCC1CCCCO1 (stereo not shown) [Example 58, N-(5-Pyrrolidin-1-yl-pentyl)-N′-(tetrahydro-pyran-2-yl-methyl)-guanidine bis-hydrochloride]			3.16	200	
N=C(NCCCN1CCCC1)NCc1ccc(Br)cc1 [Example 9, N-(4-Bromobenzyl)-N′-(3-pyrrolidin-1-yl-propyl)-guanidine bis-hydrochloride]			5.01	316	
CN1CCCC1CCCCNS(=O)(=O)Cc1ccc(Cl)cc1 (stereo not drawn) [Example 104, N-(4-(1-Methyl-pyrrolidin-2S-yl)-butyl)-(4-chlorophenyl)-methanesulfonamide]			398	398	
O=S(=O)(CCCCN1CCCC1)c1ccc2ccccc2c1 [Example 88]			631	1260	
CN(Cc1ccccc1)C(=N)NCCCCCN1CCCC1 [Example 50, N-Benzyl-N-methyl-N′-(5-pyrrolidin-1-yl-pentyl)-guanidine bis-hydrochloride]			15.8	316	
O=S(=O)(NCCCN1CCCC1)NCc1ccc(Cl)cc1 [Example 135, N-(4-Chlorobenzyl)-N′-(3-pyrrolidin-1-yl-propyl)-sulfamide]			316	631	
CN1CCC[C@H]1CCCNS(=O)(=O)Cc1ccccc1 [Example 100, N-(3-(1-Methyl-pyrrolidin-2S-yl)-propyl)-phenyl-methanesulfonamide]			200	501	
N=C(NCCCN1CCCC1)NCCc1ccc(Br)cc1 [Example 26, N-(2-(4-Bromophenyl)ethyl)-N′-(3-pyrrolidin-1-yl-propyl)-guanidine bis-hydrochloride]			39.8	158	
CN1C[C@H](O)C[C@@H]1CCCNS(=O)(=O)NCc1ccc(Cl)cc1 [Example 132, N-(4-Chlorobenzyl)-N′-(3-(4R-hydroxy-1-methyl-pyrrolidin-2S-yl)-propyl)-sulfamide]	6.9	5.8			
N=C(NCCCN1CCCC1)NCc1ccccc1Br [Example 11, N-(2-Bromobenzyl)-N′-(3-pyrrolidin-1-yl-propyl)-guanidine bis-hydrochloride]			39.8	501	
O=S(=O)(NCCCCN1CCCC1)c1ccc2ccccc2c1 [Example 83, N-(4-Pyrrolidin-1-yl-butyl)-2-naphthalenesulfonamide]			251	631	
O=S(=O)(NCCCCN1CCCC1)N(CCCCN1CCCC1)Cc1ccc(Cl)cc1 [Example 140, N-(4-Chlorobenzyl)-N N′-bis(4-pyrrolidin-1-yl-butyl)-sulfamide]			7.94	316	
Cl.Cl.N=C(NCCCCCN1CCCC1)NCC12CC3CC(CC(C3)C1)C2 [Example 30, N-Adamantan-1-yl-methyl-N′-(5-pyrrolidin-1-yl-pentyl)-guanidine bis-hydrochloride]	8.5	7.9			
CN1CCC[C@H]1CCCNS(=O)(=O)c1ccc2ccccc2c1 [Example 91, N-(3-(1-Methyl-pyrrolidin-2S-yl)-propyl)-2-naphthalenesulfonamide]			126	501	
Cl.Cl.N=C(NCCOCCN1CCCC1)NCC12CC3CC(CC(C3)C1)C2 [Example 59, N-Adamantan-1-yl-methyl-N′-(2-(2-pyrrolidin-1-yl-ethoxy)-ethyl)-guanidine bis-hydrochloride]	8.0	7.0			
CN1CCC[C@H]1CCCNS(=O)(=O)c1ccc(Cl)cc1 [Example 98, N-(3-(1-Methyl-pyrrolidin-2S-yl)-propyl)-(4-chlorophenyl)-sulfonamide]			794	794	
COc1ccc(CNC(=N)NCCCN2CCCC2)cc1Br [Example 7, N-(3-Bromo-4-methoxy-benzyl)-N′-(3-pyrrolidin-1-yl-propyl)-guanidine bis-hydrochloride]			39.8	398	
N=C(NCCCN1CCCC1)NCc1ccc(C(F)(F)F)cc1 [Example 5, N-(4-(Trifluoromethyl)benzyl)-N′-(3-pyrrolidin-1-yl-propyl)-guanidine bis-hydrochloride]				794	
N=C(N)N(CCCCCCCCCN1CCCC1)Cc1ccc(Cl)cc1 [Example 80, N-(4-Chlorobenzyl)-N-(9-pyrrolidin-1-yl-nonyl)-guanidine bis-hydrochloride]				10	
N=C(N)N(CCCCCCCN1CCCC1)Cc1ccc(Cl)cc1 [Example 71, N-(4-Chlorobenzyl)-N-(7-pyrrolidin-1-yl-heptyl)-guanidine bis-hydrochloride]				3.98	
N=C(N)N(CCCCN1CCCC1)Cc1ccc(Cl)cc1 [Example 68, N-(4-Chlorobenzyl)-N-(4-pyrrolidin-1-yl-butyl)-guanidine bis-hydrochloride]				50.1	
N=C(NCCCN1CCCC1)NCc1ccccc1 [Example 8, N-Benzyl-N′-(3-pyrrolidin-1-yl-propyl)-guanidine bis-hydrochloride]				631	
